Data as given in publication PMC3043358 (The Prostate, 2010).

Target: DNMT1 (Homo sapiens, UniProt P26358)
Type: biochemical

DNMT1, sequence (P26358 whole entry): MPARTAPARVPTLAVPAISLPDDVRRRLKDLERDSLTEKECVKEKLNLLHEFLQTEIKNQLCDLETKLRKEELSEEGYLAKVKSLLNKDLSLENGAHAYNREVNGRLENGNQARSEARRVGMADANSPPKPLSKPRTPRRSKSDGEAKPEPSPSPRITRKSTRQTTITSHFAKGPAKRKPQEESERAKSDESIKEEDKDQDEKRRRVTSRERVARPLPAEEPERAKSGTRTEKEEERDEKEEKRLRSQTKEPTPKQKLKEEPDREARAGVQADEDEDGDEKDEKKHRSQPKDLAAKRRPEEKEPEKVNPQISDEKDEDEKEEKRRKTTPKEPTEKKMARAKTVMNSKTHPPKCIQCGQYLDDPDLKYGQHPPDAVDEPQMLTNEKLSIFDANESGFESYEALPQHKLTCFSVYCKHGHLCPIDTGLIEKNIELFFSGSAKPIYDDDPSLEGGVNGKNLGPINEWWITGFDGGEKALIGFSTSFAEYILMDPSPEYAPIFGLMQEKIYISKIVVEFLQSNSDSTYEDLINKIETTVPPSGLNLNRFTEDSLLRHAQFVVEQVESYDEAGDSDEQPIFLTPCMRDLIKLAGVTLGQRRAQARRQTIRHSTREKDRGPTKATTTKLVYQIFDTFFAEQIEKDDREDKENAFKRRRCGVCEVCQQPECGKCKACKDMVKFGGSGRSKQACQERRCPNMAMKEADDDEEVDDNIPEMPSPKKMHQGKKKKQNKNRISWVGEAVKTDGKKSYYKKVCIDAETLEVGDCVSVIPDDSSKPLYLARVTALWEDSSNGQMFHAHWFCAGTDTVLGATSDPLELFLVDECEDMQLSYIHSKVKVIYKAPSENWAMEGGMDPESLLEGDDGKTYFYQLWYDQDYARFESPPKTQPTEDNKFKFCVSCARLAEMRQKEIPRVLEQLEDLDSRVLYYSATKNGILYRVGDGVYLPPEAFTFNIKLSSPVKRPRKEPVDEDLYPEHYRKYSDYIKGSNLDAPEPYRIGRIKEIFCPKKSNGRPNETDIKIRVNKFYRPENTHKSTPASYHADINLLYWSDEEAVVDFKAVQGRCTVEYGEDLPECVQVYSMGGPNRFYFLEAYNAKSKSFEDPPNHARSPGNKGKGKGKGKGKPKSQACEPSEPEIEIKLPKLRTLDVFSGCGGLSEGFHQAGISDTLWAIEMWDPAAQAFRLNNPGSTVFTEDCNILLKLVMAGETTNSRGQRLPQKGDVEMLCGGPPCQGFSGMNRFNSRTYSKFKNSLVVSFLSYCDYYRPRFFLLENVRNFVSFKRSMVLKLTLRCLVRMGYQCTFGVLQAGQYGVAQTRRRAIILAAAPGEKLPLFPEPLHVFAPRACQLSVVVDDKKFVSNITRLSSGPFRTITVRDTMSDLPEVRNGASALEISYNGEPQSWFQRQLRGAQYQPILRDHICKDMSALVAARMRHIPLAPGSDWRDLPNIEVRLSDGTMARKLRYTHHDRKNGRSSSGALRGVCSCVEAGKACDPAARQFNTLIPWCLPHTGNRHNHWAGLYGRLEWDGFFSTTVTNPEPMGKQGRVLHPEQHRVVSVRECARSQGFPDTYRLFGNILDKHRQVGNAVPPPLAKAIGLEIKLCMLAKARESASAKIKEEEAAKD

in vitro methyltransferase assay, tritium incorporation from 3H-AdoMet into hemi: 95% reduction of activity at 200
SMILES: CCN(CC)C(=S)SSC(=S)N(CC)CC [DSF, Disulfiram]
